Results reported in PMC6920997, “Total Phenolic and Flavonoid Content and Biological Activities of Extracts and Isolated Compounds of Cytisus villosus Pourr” (Biomolecules, 2019).
≈ marks a conversion by molar mass, not a printed value. Like-named read-outs stand apart in the source and are kept apart here. Values belong to the compound of their own block, whether it stands above or below them.

Experiments:
[1] = tested on: NF-κB; test: Reporter gene assay for the inhibition of NF-κB; assay type: cell-based; conditions: PMA-treated cells, luciferase reporter; NA = no activity at 25 µg/mL (pure compounds) or 100 µg/mL (extracts); read-out: Inhibition of NF-kB IC50
Procedure: Reporter gene assay for the inhibition of NF-κB Activity was performed as described earlier. In brief, cells transfected with NF-κB luciferase plasmid construct were plated in 96-well plates at a density of 1.25 × 10^5 cells/well. After 24 h, cells were treated with the test compounds and, after incubating for 30 min, phorbol 12-myristate 13-acetate (PMA) (Sigma-Aldrich, Burlington MA, USA) (70 ng/mL) was added and further incubated for 6−8 h. Luciferase activity was measured as described above. Percent decrease in luciferase activity was calculated relative to the vehicle control. Parthenolide (Sigma-Aldrich, Burlington MA, USA) was used as a positive control.

[2] = tested on: iNOS; test: Inhibition of iNOS (intracellular NO production) in RAW 264.7 macrophages; assay type: cell-based; conditions: Mus musculus, RAW264.7; RAW 264.7 cells; NA = no activity at 25 µg/mL (pure compounds) or 100 µg/mL (extracts)
Procedure: The extracts and isolated compounds of C. villosus were evaluated in terms of their interaction with cellular targets related to inflammation and metabolic disorders, such as iNOS and NF-κB. The inhibition of intracellular NO production as a result of iNOS activity was assayed in mouse macrophages (RAW 264.7cells). Cytotoxicity of test samples to macrophages was also determined in parallel to check if the inhibition of iNOS was due to cytotoxic effects.

[3] = tested on: HepG2 cells; test: Cellular antioxidant activity (CAA) assay; assay type: cell-based; conditions: 25 µM
Procedure: The cellular antioxidant activity was measured in HepG2 cells as described by Wolfe and Rui. The antioxidant activity was expressed in terms of CAA units. The area under the curve (AUC) of fluorescence versus time plot was used to calculate CAA units as described by Wolfe and Rui.

[4] = tested on: Pseudomonas aeruginosa; test: Antibacterial assay P. aeruginosa; assay type: cell-based; conditions: Concentration: 50 μg/mL, <50 considered inactive, read-out: % Growth Inhibition P. aeruginosa
Procedure: (§1) Extracts and pure compounds were tested for their antimicrobial activity against Staphylococcus aureus, methicillin-resistant S. aureus (MRSA), Escherichia coli, Pseudomonas aeruginosa, and Mycobacterium intracellulare. The antifungal activities were evaluated against a panel of pathogenic fungi, including Candida albicans, C. glabrata, C. krusei, Aspergillus fumigatus, and Cryptococcus neoformans, associated with opportunistic infections.

[5] = tested on: Cryptococcus neoformans; test: Antifungal assay C. neoformans; assay type: cell-based; conditions: Concentration: 50 μg/mL, <50 considered inactive, read-out: % Growth Inhibition C. neoformans
Procedure: as §1

[6] = tested on: methicillin-resistant S. aureus (MRSA); test: Antibacterial assay MRSA; assay type: cell-based; conditions: Staphylococcus aureus, Concentration: 50 μg/mL, <50 considered inactive, read-out: % Growth Inhibition MRSA
Procedure: as §1

[7] = tested on: Candida albicans; test: Antifungal assay C. albicans; assay type: cell-based; conditions: Concentration: 50 μg/mL, <50 considered inactive, read-out: % Growth Inhibition C. albicans
Procedure: as §1

[8] = tested on: Escherichia coli; test: Antibacterial assay E. coli; assay type: cell-based; conditions: Concentration: 50 μg/mL, <50 considered inactive, read-out: % Growth Inhibition E. coli
Procedure: as §1

[9] = tested on: Trypanosoma brucei trypomastigotes; test: Antitrypanosomal Alamar Blue assay; assay type: cell-based; conditions: Table 4; for IC50: read-out: T. brucei IC50; for IC90: read-out: T. brucei IC90
Description: (§2) The in vitro antileishmanial and antitrypanosomal assays were done on cell cultures of L. donovani promastigotes, axenic amastigotes, THP1-amastigotes, and Trypanosoma brucei trypomastigotes by Alamar Blue assays. The conditions for seeding the THP1 cells, exposure to the test samples, and evaluation of cytotoxicity were the same as described in parasite-rescue and transformation assay. IC50 and IC90 values were computed from the dose response curves using XLfit software (XLfit 5.3.1, IDBS analytical, Boston MA, USA). DFMO (difluoromethylornithine) was used as the positive control. The antiprotozoal activity of C. villosus extracts and isolated compounds were evaluated in vitro against L. donovani promastigotes, axenic amastigotes, and intracellular amastigotes in THP1 cells. The extracts and some isolated compounds were also evaluated against T. brucei trypomastigote forms. All the extracts and compounds were simultaneously tested against THP1 cell for determination of general cytotoxicity. The extracts and isolated compounds were also evaluated for their antimalarial activity against chloroquine-sensitive (D6, Sierra Leone) and chloroquine-resistant strains (W2, Indochina) strains of Plasmodium falciparum. Furthermore, they were tested for cytotoxicity against the Vero cell line.

[10] = tested on: THP1 cells; test: THP1 cytotoxicity; assay type: cell-based; conditions: human
Description: as §2

[11] = THP1 cytotoxicity; assay type: cell-based; conditions: human
Description: as §2

[12] = tested on: L. donovani promastigotes; test: Antileishmanial Alamar Blue assay, promastigotes; assay type: cell-based; conditions: Leishmania donovani
Description: as §2

[13] = tested on: L. donovani intracellular amastigotes in THP1 cells; test: Antileishmanial assay, intracellular amastigotes in THP1 cells; assay type: cell-based; conditions: Leishmania donovani
Description: as §2

[14] = tested on: L. donovani axenic amastigotes; test: Antileishmanial Alamar Blue assay, axenic amastigotes; assay type: cell-based; conditions: Leishmania donovani
Description: as §2

[15] = DPPH radical scavenging assay; conditions: mean ± SD of three measurements
Procedure: The antioxidant activity of the extracts and pure isolated compounds was determined by applying the 2,2-diphenyl-1-picrylhydrazyl (DPPH) radical scavenging method.

IC50 [1]: 28 µg/mL (≈ 104 µM) | IC50 [2]: 9 µg/mL (≈ 33.3 µM)
Compound: O=c1c(-c2ccc(O)cc2)coc2cc(O)cc(O)c12 [Compound 1, genistein]

Compound: O=c1c(O)c(-c2ccc(O)c(O)c2)oc2cc(O)cc(O)c12 [Quercetin, reference compound]
% Decrease in Oxidative Stress [3]: 77%

Compound: O=C(O)c1cn(C2CC2)c2cc(N3CCNCC3)c(F)cc2c1=O [CIPRO, Ciprofloxacin, reference compound]
inhibition at 50 µg/mL [4]: 96% | inhibition at 50 µg/mL [5]: 0% | inhibition at 50 µg/mL [6]: 0% | inhibition at 50 µg/mL [7]: 0% | inhibition at 50 µg/mL [8]: 100%

IC50 ([9]; Trypanosoma brucei): 0.001 µM | IC90 ([9]; Trypanosoma brucei): 0.002 µM | IC50 ([12]; read-out: L. donovani Promastigote IC50): 1.48 µM | IC90 ([12]; read-out: L. donovani Promastigote IC90): 2.38 µM | IC50 ([13]; THP-1, read-out: L. donovani Amastigote/THP1 IC50): 1.16 µM | IC90 ([13]; THP-1, read-out: L. donovani Amastigote/THP1 IC90): 5.59 µM | IC50 ([14]; read-out: L. donovani Amastigote IC50): 9.58 µM | IC90 ([14]; read-out: L. donovani Amastigote IC90): > 10 µM
Compound: N=C(N)c1ccc(OCCCCCOc2ccc(C(=N)N)cc2)cc1 [Pentamidine, reference compound]
THP1 Cytotoxicity C90 [10]: >10 µM | IC50 [11]: > 10 µM

DPPH Scavenging IC50 [15]: 43 ± 6 µg/mL
Compound: O=C1O[C@H]([C@@H](O)CO)C(O)=C1O [Ascorbic acid]

IC50 [9]: 3.63 µM | IC90 [9]: 8.8 µM
Compound: NCCCC(N)(C(=O)O)C(F)F (stereo not drawn) [DFMO, difluoromethylornithine, reference compound]
